From ChEMBL document CHEMBL4308897, “Antileishmanial activity and cytotoxicity of ent-beyerene diterpenoids” (Bioorg Med Chem, 2019)
Active and inactive are the calls of the source. The calls are words filed in the database; no cut-off is given here.

Experiments:
[1] = Cytotoxicity against human U937 cells after 72 hrs by MTT assay; format: cell-based, U-937; details: read-out: LC50
Leishmania braziliensis [2] = test: Antileishmanial activity against Leishmania (Viannia) braziliensis HMOM/COL/88/UA301-EGFP intracellular amastigotes infected in human U937 cells after 72 hrs by flow cytometric analysis; format: functional, organism-based; details: HMOM/COL/88/UA301, U-937, 72 h
[3] = Selectivity index, ratio of LC50 for human U937 cells to EC50 for Leishmania (Viannia) braziliensis HMOM/COL/88/UA301-EGFP intracellular amastigotes infected in human U937 cells; format: toxicity, cell-based; details: read-out: Selectivity Index
Leishmania braziliensis [4] = test: Antileishmanial activity against Leishmania (Viannia) braziliensis HMOM/COL/88/UA301-EGFP infected in golden hamster assessed as cure rate at 200 ug administered intralesionally twice per week for 4 weeks measured 3 months post last dose relative to control; format: functional, organism-based
Leishmania braziliensis [5] = test: Antileishmanial activity against Leishmania (Viannia) braziliensis HMOM/COL/88/UA301-EGFP infected in golden hamster assessed as clinical improvement at 200 ug administered intralesionally twice per week for 4 weeks measured 3 months post last dose relative to control; format: functional, organism-based
Leishmania braziliensis [6] = test: Antileishmanial activity against Leishmania (Viannia) braziliensis HMOM/COL/88/UA301-EGFP infected in golden hamster assessed as relapse at 200 ug administered intralesionally twice per week for 4 weeks measured 3 months post last dose relative to control; format: functional, organism-based
Leishmania braziliensis [7] = test: Antileishmanial activity against Leishmania (Viannia) braziliensis HMOM/COL/88/UA301-EGFP infected in golden hamster assessed as clinical failure at 200 ug administered intralesionally twice per week for 4 weeks measured 3 months post last dose relative to control; format: functional, organism-based
Syrian golden hamster [8] = test: (§1) Antiinflammatory activity in golden hamster infected with Leishmania (Viannia) braziliensis HMOM/COL/88/UA301-EGFP assessed as migration of lymphocytes in skin at 200 ug administered intralesionally twice per week for 4 weeks measured 3 months post last dose by histopathological analysis; format: functional, organism-based; details: Mesocricetus auratus
Syrian golden hamster [9] = test: (§2) Antiinflammatory activity in golden hamster infected with Leishmania (Viannia) braziliensis HMOM/COL/88/UA301-EGFP assessed as migration of plasmocytes in skin at 200 ug administered intralesionally twice per week for 4 weeks measured 3 months post last dose by histopathological analysis; format: functional, organism-based; details: Mesocricetus auratus
Syrian golden hamster [10] = test: (§3) Antiinflammatory activity in golden hamster infected with Leishmania (Viannia) braziliensis HMOM/COL/88/UA301-EGFP assessed as migration of macrophages in skin at 200 ug administered intralesionally twice per week for 4 weeks measured 3 months post last dose by histopathological analysis; format: functional, organism-based; details: Mesocricetus auratus
Syrian golden hamster [11] = test: Antiinflammatory activity in golden hamster infected with Leishmania (Viannia) braziliensis HMOM/COL/88/UA301-EGFP assessed as re-epithelialization in skin at 200 ug administered intralesionally twice per week for 4 weeks measured 3 months post last dose by histopathological analysis; format: functional, organism-based; details: Mesocricetus auratus
Leishmania braziliensis [12] = test: Antileishmanial activity against Leishmania (Viannia) braziliensis HMOM/COL/88/UA301-EGFP infected in golden hamster assessed as cure rate at 0.81% administered topically as cream formulation for 20 days measured 3 months post last dose relative to control; format: functional
Leishmania braziliensis [13] = test: Antileishmanial activity against Leishmania (Viannia) braziliensis HMOM/COL/88/UA301-EGFP infected in golden hamster assessed as clinical improvement at 0.81% administered topically as cream formulation for 20 days measured 3 months post last dose relative to control; format: functional
Leishmania braziliensis [14] = test: Antileishmanial activity against Leishmania (Viannia) braziliensis HMOM/COL/88/UA301-EGFP infected in golden hamster assessed as cure rate at 1.96% administered topically as cream formulation for 20 days measured 3 months post last dose relative to control; format: functional
Leishmania braziliensis [15] = test: Antileishmanial activity against Leishmania (Viannia) braziliensis HMOM/COL/88/UA301-EGFP infected in golden hamster assessed as clinical improvement at 1.96% administered topically as cream formulation for 20 days measured 3 months post last dose relative to control; format: functional
Leishmania braziliensis [16] = test: Antileishmanial activity against Leishmania (Viannia) braziliensis HMOM/COL/88/UA301-EGFP infected in golden hamster assessed as clinical failure at 0.81% administered topically as cream formulation for 20 days measured 3 months post last dose relative to control; format: functional
Leishmania braziliensis [17] = test: Antileishmanial activity against Leishmania (Viannia) braziliensis HMOM/COL/88/UA301-EGFP infected in golden hamster assessed as clinical failure at 1.96% administered topically as cream formulation for 20 days measured 3 months post last dose relative to control; format: functional
Leishmania braziliensis [18] = test: Antileishmanial activity against Leishmania (Viannia) braziliensis HMOM/COL/88/UA301-EGFP infected in golden hamster assessed as relapse at 1.96% administered topically as cream formulation for 20 days measured 3 months post last dose relative to control; format: functional
[19] = Toxicity in golden hamster infected with Leishmania (Viannia) braziliensis HMOM/COL/88/UA301-EGFP assessed as change in body weight at 0.81% to 1.96% administered topically as cream formulation for 20 days measured up to 90 days post last dose; design: species or system Mesocricetus auratus; details: in vivo, topical_or_ocular
[20] = Toxicity in golden hamster infected with Leishmania (Viannia) braziliensis HMOM/COL/88/UA301-EGFP assessed as effect on serum alanine aminotransferase level at 0.81% to 1.96% administered topically as cream formulation for 20 days and measured day 8 post last treatment; design: species or system Mesocricetus auratus; details: in vivo, topical_or_ocular, 480 h
[21] = Toxicity in golden hamster infected with Leishmania (Viannia) braziliensis HMOM/COL/88/UA301-EGFP assessed as effect on serum creatinine level at 0.81% to 1.96% administered topically as cream formulation for 20 days and measured day 8 post last treatment; design: species or system Mesocricetus auratus; details: in vivo, topical_or_ocular, 480 h
[22] = Toxicity in golden hamster infected with Leishmania (Viannia) braziliensis HMOM/COL/88/UA301-EGFP assessed as effect on serum BUN level at 0.81% to 1.96% administered topically as cream formulation for 20 days and measured day 8 post last treatment; design: species or system Mesocricetus auratus; details: in vivo, topical_or_ocular, 480 h
Leishmania braziliensis [23] = test: Antileishmanial activity against Leishmania (Viannia) braziliensis HMOM/COL/88/UA301-EGFP infected in golden hamster assessed as relapse at 0.81% administered topically as cream formulation for 20 days measured 3 months post last dose relative to control; format: functional
Syrian golden hamster [24] = test: as §1, with “0.81% to 1.96%” for “200 ug”, “topically as cream formulation” for “intralesionally twice per week”, “20 days and” for “4 weeks”, “treatment” for “dose”; format: functional, organism-based; details: Mesocricetus auratus
Syrian golden hamster [25] = test: as §2, with “0.81% to 1.96%” for “200 ug”, “topically as cream formulation” for “intralesionally twice per week”, “20 days and” for “4 weeks”, “treatment” for “dose”; format: functional, organism-based; details: Mesocricetus auratus
Syrian golden hamster [26] = test: as §3, with “0.81% to 1.96%” for “200 ug”, “topically as cream formulation” for “intralesionally twice per week”, “20 days and” for “4 weeks”, “treatment” for “dose”; format: functional, organism-based; details: Mesocricetus auratus
Leishmania braziliensis [27] = test: Antileishmanial activity against Leishmania (Viannia) braziliensis HMOM/COL/88/UA301-EGFP infected in golden hamster assessed as parasitic load per milligram of tissue at 0.81 to 1.96% administered topically as cream formulation for 20 days measured 3 months post last dose by RT-PCR analysis; format: functional
[28] = Hepatotoxicity in golden hamster infected with Leishmania (Viannia) braziliensis HMOM/COL/88/UA301-EGFP assessed as vacuolar degeneration at 0.81% to 1.96% administered topically as cream formulation for 20 days measured 90 days post last dose by histopathological analysis; format: toxicity, Mesocricetus auratus; details: in vivo, topical_or_ocular, 2160 h
[29] = Hepatotoxicity in golden hamster infected with Leishmania (Viannia) braziliensis HMOM/COL/88/UA301-EGFP assessed as hemosiderin pigmentation at 0.81% to 1.96% administered topically as cream formulation for 20 days measured 90 days post last dose by histopathological analysis; format: toxicity, Mesocricetus auratus; details: in vivo, topical_or_ocular, 2160 h
[30] = Hepatotoxicity in golden hamster infected with Leishmania (Viannia) braziliensis HMOM/COL/88/UA301-EGFP assessed as congestion at 0.81% to 1.96% administered topically as cream formulation for 20 days measured 90 days post last dose by histopathological analysis; format: toxicity, Mesocricetus auratus; details: in vivo, topical_or_ocular, 2160 h
[31] = Hepatotoxicity in golden hamster infected with Leishmania (Viannia) braziliensis HMOM/COL/88/UA301-EGFP assessed as infiltration of lymphocytes at 0.81% to 1.96% administered topically as cream formulation for 20 days measured 90 days post last dose by histopathological analysis; format: toxicity, Mesocricetus auratus; details: in vivo, topical_or_ocular, 2160 h
[32] = Hepatotoxicity in golden hamster infected with Leishmania (Viannia) braziliensis HMOM/COL/88/UA301-EGFP assessed as infiltration of macrophages at 0.81% to 1.96% administered topically as cream formulation for 20 days measured 90 days post last dose by histopathological analysis; format: toxicity, Mesocricetus auratus; details: in vivo, topical_or_ocular, 2160 h
[33] = Renal toxicity in golden hamster infected with Leishmania (Viannia) braziliensis HMOM/COL/88/UA301-EGFP assessed as vacuolar degeneration at 0.81% to 1.96% administered topically as cream formulation for 20 days measured 90 days post last dose by histopathological analysis; design: species or system Mesocricetus auratus; details: in vivo, topical_or_ocular, 2160 h

C[C@@]12CC[C@@H]3[C@@](CC[C@@H]4[C@](C)(CO)CCC[C@]43C)(CC1)C2
CC50 at 72 h [1]: 29.6 µM | EC50 (Leishmania braziliensis [2]): 18.1 µM | selectivity ratio [3]: 1.6

C[C@@]12CC[C@@H]3[C@@](CC[C@H]4[C@@]3(C)CCC[C@@]4(C)C(=O)O)(CC1=O)C2 [ISOSTEVIOL]
CC50 at 72 h [1]: 66.9 µM | EC50 (Leishmania braziliensis [2]): > 20 µM | selectivity ratio [3]: > 3.3

C[C@]12CC[C@H]3[C@]4(C)CCC[C@@](C)(CO)[C@H]4CC[C@@]3(C1)[C@H]1O[C@H]12
CC50 at 72 h [1]: 118 µM | EC50 (Leishmania braziliensis [2]): > 63 µM | selectivity ratio [3]: > 1.9

MEGLUMINE ANTIMONATE
Activity (Leishmania braziliensis [4]): 66.7% | Activity (Leishmania braziliensis [5]): 16.7% | Activity (Leishmania braziliensis [6]): 16.7% | Activity (Leishmania braziliensis [7]): 0% | Activity (Syrian golden hamster [8]): Active | Activity (Syrian golden hamster [9]): Active | Activity (Syrian golden hamster [10]): Active | Activity (Syrian golden hamster [11]): Active

CCOC(=O)[C@]1(C)CCC[C@@]2(C)[C@@H]3CC[C@@]4(C)C[C@]3(CC[C@@H]21)CC4=O
CC50 at 72 h [1]: 51.9 µM | EC50 (Leishmania braziliensis [2]): 36.3 µM | selectivity ratio [3]: 0.86

C[C@]12C=C[C@@]3(CC[C@@H]4[C@](C)(CO)CCC[C@@]4(C)[C@@H]3CC1)C2
CC50 at 72 h [1]: 114 µM | EC50 (Leishmania braziliensis [2]): 16 µM | selectivity ratio [3]: 5.1 | Activity (Leishmania braziliensis [12]): 50% | Activity (Leishmania braziliensis [13]): 50% | Activity (Leishmania braziliensis [14]): 16.7% | Activity (Leishmania braziliensis [15]): 50% | Activity (Leishmania braziliensis [16]): 0% | Activity (Leishmania braziliensis [17]): 16.7% | Activity (Leishmania braziliensis [18]): 16.7% | Activity [19]: Non-Toxic | Activity [20]: Non-Toxic | Activity [21]: Non-Toxic | Activity [22]: Non-Toxic | Activity (Leishmania braziliensis [23]): 0% | Activity (Syrian golden hamster [24]): Active | Activity (Syrian golden hamster [25]): Active | Activity (Syrian golden hamster [26]): Active | Activity (Leishmania braziliensis [27]): <500 | Activity [28]: Toxic | Activity [29]: Toxic | Activity [30]: Toxic | Activity [31]: Toxic | Activity [32]: Toxic | Activity [33]: Toxic

CCOC(=O)[C@]1(C)CCC[C@@]2(C)[C@@H]3CC[C@@]4(C)C[C@]3(CC[C@@H]21)C/C4=N/NS(=O)(=O)c1ccc(C)cc1
CC50 at 72 h [1]: 8.8 µM | EC50 (Leishmania braziliensis [2]): 3 µM | selectivity ratio [3]: 3.5

C[C@]12C=C[C@@]3(CC[C@H]4[C@@](C)(CCC[C@@]4(C)C(=O)O)[C@@H]3CC1)C2 [MONOGINOIC ACID]
CC50 at 72 h [1]: 130 µM | EC50 (Leishmania braziliensis [2]): > 66 µM | selectivity ratio [3]: > 2

C[C@@H]1[C@H](O)[C@@H](C)/C=C/C=C/C=C/C=C/C=C/C=C/C=C/[C@H](O[C@@H]2O[C@H](C)[C@@H](O)[C@H](N)[C@@H]2O)C[C@@H]2O[C@](O)(C[C@@H](O)C[C@@H](O)[C@H](O)CC[C@@H](O)C[C@@H](O)CC(=O)O[C@H]1C)C[C@H](O)[C@H]2C(=O)O [AMPHOTERICIN B]
CC50 at 72 h [1]: 54.4 µM | EC50 (Leishmania braziliensis [2]): 0.8 µM | selectivity ratio [3]: 71.8

CCOC(=O)[C@]1(C)CCC[C@@]2(C)[C@@H]3CC[C@@]4(C)C[C@]3(CC[C@@H]21)C/C4=N/O
CC50 at 72 h [1]: 15.7 µM | EC50 (Leishmania braziliensis [2]): 8.8 µM | selectivity ratio [3]: 1.8

Cc1ccc(S(=O)(=O)N/N=C2/C[C@]34CC[C@H]5[C@@](C)(CCC[C@@]5(C)C(=O)O)[C@@H]3CC[C@@]2(C)C4)cc1
CC50 at 72 h [1]: 5.9 µM | EC50 (Leishmania braziliensis [2]): 2.3 µM | selectivity ratio [3]: 3.1

C[C@]12CC[C@H]3[C@]4(C)CCC[C@@](C)(C(=O)O)[C@H]4CC[C@@]3(C1)[C@H]1O[C@H]12
CC50 at 72 h [1]: 64.8 µM | EC50 (Leishmania braziliensis [2]): 43.3 µM | selectivity ratio [3]: 1.5

CCOC(=O)[C@]1(C)CCC[C@@]2(C)[C@@H]3CC=C(C)C[C@@]3(CC#N)CC[C@@H]21
CC50 at 72 h [1]: 9.1 µM | EC50 (Leishmania braziliensis [2]): 14.1 µM | selectivity ratio [3]: 0.6

CCOC(=O)[C@]1(C)CCC[C@@]2(C)[C@@H]3CC[C@@]4(C)C[C@]3(CC[C@@H]21)C[C@H]4O
CC50 at 72 h [1]: 28.8 µM | EC50 (Leishmania braziliensis [2]): 13.6 µM | selectivity ratio [3]: 1.4
